We go through five molecules from patent US11117868B2, “Edaravone salt” (Treeway TW001 B.V., priority 2017, dated 2021).

Data set [1] can be described thus: Solubility in water after 7 hours equilibration. In kind it is physicochemical.
Data set [2] is described as follows: Hygroscopicity / conversion of polymorph through absorption of water. It counts as physicochemical.
Data set [3] is described as follows: Intrinsic dissolution rate in water. It counts as physicochemical. How it is done:
The intrinsic dissolution rate in water of the edaravone salt was 0.37 mg/min/cm^2, whereas the dissolution rate of the freebase was 0.22 mg/min/cm^2.

The nature of data set [4]: Storage stability at controlled temperature and relative humidity.
The conditions of data set [5]: cited from earlier work.

Values after ≈ are worked out from the molar mass of the structure shown. Values joined by “and” are separate entries in the source; they are usually repeats but may differ in a detail not shown here. Equal entries are not always repeated.

Turning to “3-methyl-1-phenyl-2-pyrazolin-5-one hemi-napadisylate monohydrate [Example 1]”, the solubility in water in data set [1] (monohydrate) is 2800 µg/mL and 3200 µg/mL. The hygroscopicity result in data set [2] was “non-hygroscopic”. The “intrinsic dissolution rate in water” value in data set [3] is 0.37 mg/min/cm^2. The “stability (in words)” value in data set [4] is “very stable”. Further, the degradation on storage entry in data set [4] (kept for 28 days at 40° C. and 75% RH) was “without showing significant degradation”.
As to “anhydrous 3-methyl-1-phenyl-2-pyrazolin-5-one napadisylate [Example 6]”, in data set [2] (conversion into polymorph D), the “relative humidity at which it is converted into polymorph D through absorption of water” value is listed as over 75 % RH. The degradation on storage result in data set [4] (kept for 2 days at 40° C. and 75% RH) was “without showing significant degradation”.
In the case of `CC1=NN(c2ccccc2)C(=O)C1.CC1=NN(c2ccccc2)C(=O)C1.O.O=S(=O)(O)c1cccc2c(S(=O)(=O)O)cccc12` [Example 3, 3-methyl-1-phenyl-2-pyrazolin-5-one hemi-napadisylate hemihydrate], the “relative humidity at which it is converted into polymorph B through absorption of water” value in data set [2] (conversion into polymorph B) was over 50 % RH.
On to `CC1=NN(c2ccccc2)C(=O)C1.CC1=NN(c2ccccc2)C(=O)C1.O.O.O=S(=O)(O)c1cccc2c(S(=O)(=O)O)cccc12` [Example 4, 3-methyl-1-phenyl-2-pyrazolin-5-one hemi-napadisylate monohydrate], for which the hygroscopicity entry in data set [2] is “non-hygroscopic”.
One may read the solubility as the concentration that dissolves in the medium under given conditions. `CC1=NN(c2ccccc2)C(=O)C1` [Edaravone, 3-Methyl-1-phenyl-2-pyrazolin-5-one]: the solubility at 7 h in data set [1] (thermodynamic from solid) was 2000 to 3000 µg/mL (≈ 11.5 to 17.2 mM). Also, in data set [3], the “intrinsic dissolution rate in water” value was found to be 0.22 mg/min/cm^2. The “dissolution in water (in words)” value in data set [5] is on record as “dissolves very slowly”.
